Results published in ChEMBL document CHEMBL1201862, “PubChem BioAssay data set” (2004).
Calls of active or inactive are those of the source.

What was measured:
[1] = target: T1, Zinc finger protein mex-5 (Caenorhabditis elegans, UniProt Q9XUB2); assay: potency of MEX-5 RNA-binding blockers – biochemical, C. elegans, fluorescence polarization, dose response (AID 1960)
T1 sequence (Q9XUB2 whole entry): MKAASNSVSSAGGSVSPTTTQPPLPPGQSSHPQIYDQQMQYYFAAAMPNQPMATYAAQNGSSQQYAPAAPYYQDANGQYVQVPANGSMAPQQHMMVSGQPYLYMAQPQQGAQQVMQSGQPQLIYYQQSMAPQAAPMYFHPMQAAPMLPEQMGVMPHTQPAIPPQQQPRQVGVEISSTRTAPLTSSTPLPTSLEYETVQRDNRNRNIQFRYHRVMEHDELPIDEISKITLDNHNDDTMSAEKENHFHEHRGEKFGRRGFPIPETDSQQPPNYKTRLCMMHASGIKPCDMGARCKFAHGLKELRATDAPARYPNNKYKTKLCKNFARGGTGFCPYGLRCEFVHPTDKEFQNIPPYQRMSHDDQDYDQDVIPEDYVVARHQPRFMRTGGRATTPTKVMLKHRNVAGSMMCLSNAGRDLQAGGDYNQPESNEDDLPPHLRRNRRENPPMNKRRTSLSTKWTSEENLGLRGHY

Streptokinase A = target: T2, Streptokinase A (Streptococcus pyogenes serotype M1, UniProt P10520); assay: viability-normalized secreted streptokinase activity reduction – plasminogen activation absorbance, OD405, dose response (AID 1914); format: functional, Streptococcus pyogenes M1 GAS;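 note: secreted streptokinase activity via plasminogen activation per viability signal from cell pellet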
T2 sequence (P10520 whole entry): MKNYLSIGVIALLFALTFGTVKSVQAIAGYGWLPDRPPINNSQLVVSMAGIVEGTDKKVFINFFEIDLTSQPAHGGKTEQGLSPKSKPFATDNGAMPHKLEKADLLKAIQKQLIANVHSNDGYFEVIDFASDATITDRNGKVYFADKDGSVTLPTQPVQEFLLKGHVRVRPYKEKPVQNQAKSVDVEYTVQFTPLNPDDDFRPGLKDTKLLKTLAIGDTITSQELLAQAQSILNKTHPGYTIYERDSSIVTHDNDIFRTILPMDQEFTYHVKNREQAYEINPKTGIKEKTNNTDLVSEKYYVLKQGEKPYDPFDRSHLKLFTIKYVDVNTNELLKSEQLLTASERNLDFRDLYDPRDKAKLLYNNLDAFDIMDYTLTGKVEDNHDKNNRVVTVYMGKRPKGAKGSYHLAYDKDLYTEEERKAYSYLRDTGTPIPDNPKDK

CHO = CHO cell viability loss, potency – luminescence, cytotoxicity control for TLR9-MyD88 binding inhibitor project, dose response (AID 588339); format: functional, cell-based, hamster; details: Cricetulus griseus;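 note: CHO cells stably coexpressing TLR9 and MyD88 fusions from primary screen; compound exposure lasted 48 hours before viability readout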
Bcl-2-like protein 10 = target: T3, Bcl-2-like protein 10 (Homo sapiens, UniProt Q9HD36); assay: Bcl-B/TR3 peptide binding disruption – biochemical, fluorescence polarization, FITC-TR3 peptide, selectivity assay for Bfl-1 inhibitor project, primary screen (AID 748);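 note: fluorescence polarization from a fluorescein-labelled TR3 peptide binding purified Bcl-B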
T3 sequence (Q9HD36 whole entry): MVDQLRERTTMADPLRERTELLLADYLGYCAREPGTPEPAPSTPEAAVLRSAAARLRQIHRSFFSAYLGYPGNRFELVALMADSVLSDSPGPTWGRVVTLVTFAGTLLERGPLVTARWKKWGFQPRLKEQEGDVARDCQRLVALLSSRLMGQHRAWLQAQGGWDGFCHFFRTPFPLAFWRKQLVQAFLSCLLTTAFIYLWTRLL

Aspartyl aminopeptidase = Aspartyl aminopeptidase (Plasmodium falciparum 3D7, UniProt Q8I2J3)
Sequence of Aspartyl aminopeptidase (Q8I2J3 whole entry): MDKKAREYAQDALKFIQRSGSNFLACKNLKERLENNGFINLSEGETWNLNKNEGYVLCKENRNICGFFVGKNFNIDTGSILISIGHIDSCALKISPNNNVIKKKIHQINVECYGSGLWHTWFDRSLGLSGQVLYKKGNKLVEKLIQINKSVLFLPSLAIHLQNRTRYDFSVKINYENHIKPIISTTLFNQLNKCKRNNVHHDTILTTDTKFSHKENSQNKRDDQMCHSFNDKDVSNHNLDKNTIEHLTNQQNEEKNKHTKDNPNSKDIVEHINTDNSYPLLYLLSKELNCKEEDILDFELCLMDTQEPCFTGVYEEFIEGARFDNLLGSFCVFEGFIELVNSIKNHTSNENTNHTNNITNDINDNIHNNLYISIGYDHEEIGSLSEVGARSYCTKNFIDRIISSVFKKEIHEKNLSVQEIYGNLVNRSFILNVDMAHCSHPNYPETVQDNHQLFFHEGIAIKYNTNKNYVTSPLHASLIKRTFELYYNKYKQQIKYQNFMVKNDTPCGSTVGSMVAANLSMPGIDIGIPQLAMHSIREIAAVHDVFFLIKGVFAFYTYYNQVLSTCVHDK

[2] = target: Glucose-6-phosphate 1-dehydrogenase (Homo sapiens, UniProt P11413); assay: inhibition of Homo sapiens G6PD, dose series – biochemical, fluorescence, selectivity assay for P. falciparum G6PD inhibitor project, dose response (AID 504792); format: functional
Sequence of Glucose-6-phosphate 1-dehydrogenase (P11413 whole entry): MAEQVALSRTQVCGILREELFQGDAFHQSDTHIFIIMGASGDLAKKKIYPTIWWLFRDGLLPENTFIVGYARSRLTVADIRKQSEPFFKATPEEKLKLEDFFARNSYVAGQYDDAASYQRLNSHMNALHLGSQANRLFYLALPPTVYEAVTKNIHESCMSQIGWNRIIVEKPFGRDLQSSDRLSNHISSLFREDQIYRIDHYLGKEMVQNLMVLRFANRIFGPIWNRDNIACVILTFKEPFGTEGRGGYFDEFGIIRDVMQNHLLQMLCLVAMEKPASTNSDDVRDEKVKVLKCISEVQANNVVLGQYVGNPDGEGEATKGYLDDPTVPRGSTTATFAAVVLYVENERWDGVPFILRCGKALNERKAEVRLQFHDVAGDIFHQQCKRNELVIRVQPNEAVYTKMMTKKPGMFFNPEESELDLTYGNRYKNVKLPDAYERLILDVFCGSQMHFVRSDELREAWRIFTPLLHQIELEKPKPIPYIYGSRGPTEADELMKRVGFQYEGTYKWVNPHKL

[3] = target: Tyrosine-protein kinase JAK2 (Homo sapiens, UniProt O60674); format: functional;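 note: JAK2 tested as one member of a kinase panel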
[4] = target: 5'-AMP-activated protein kinase catalytic subunit alpha-1 (Homo sapiens, UniProt Q13131); format: functional
SRSF protein kinase 1 = SRSF protein kinase 1 (Homo sapiens, UniProt Q96SB4); format: functional;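 note: measured as one member of a kinome-wide kinase profiling panel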
[5] = target: Mitogen-activated protein kinase 8 (Homo sapiens, UniProt P45983); format: functional;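 note: value comes from one member of a kinome-wide kinase profiling panel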
[6] = target: Serine/threonine-protein kinase pim-1 (Homo sapiens, UniProt P11309); format: functional
Aurora kinase A = Aurora kinase A (Homo sapiens, UniProt O14965); format: functional;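 note: value from the Navigating the Kinome kinase panel profiling, panel entry STK6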
[7] = target: Tyrosine-protein kinase Lyn (Homo sapiens, UniProt P07948); format: functional;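 note: lyn as one member of a kinase panel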
[8] = target: Testis-specific serine/threonine-protein kinase 1 (Homo sapiens, UniProt Q9BXA7); format: functional
Sequence of Testis-specific serine/threonine-protein kinase 1 (Q9BXA7 whole entry): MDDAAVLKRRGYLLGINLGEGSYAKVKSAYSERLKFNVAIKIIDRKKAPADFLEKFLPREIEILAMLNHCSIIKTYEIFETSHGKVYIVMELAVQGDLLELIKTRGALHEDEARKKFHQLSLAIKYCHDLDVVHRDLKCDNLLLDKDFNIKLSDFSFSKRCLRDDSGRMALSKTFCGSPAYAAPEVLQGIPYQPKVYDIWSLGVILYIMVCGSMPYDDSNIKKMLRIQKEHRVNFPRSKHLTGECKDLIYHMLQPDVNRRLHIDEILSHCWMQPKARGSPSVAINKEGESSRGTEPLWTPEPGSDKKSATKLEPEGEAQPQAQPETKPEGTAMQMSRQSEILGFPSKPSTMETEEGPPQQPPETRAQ

[9] = target: Non-receptor tyrosine-protein kinase TYK2 (Homo sapiens, UniProt P29597); format: functional
[10] = target: Glycogen synthase kinase-3 alpha (Homo sapiens, UniProt P49840); format: functional;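 note: GSK3A result taken from a broad kinome-wide kinase panel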
[11] = target: Vascular endothelial growth factor receptor 2 (Homo sapiens, UniProt P35968); format: functional
Ephrin type-A receptor 2 = Ephrin type-A receptor 2 (Homo sapiens, UniProt P29317); format: functional;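 note: EPHA2 tested as one member of a kinome-wide kinase panel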
[12] = target: Insulin-like growth factor 1 receptor (Homo sapiens, UniProt P08069); assay: Navigating the Kinome. Panel member name: IGF1R; format: functional
[13] = target: Mitogen-activated protein kinase 1 (Homo sapiens, UniProt P28482); format: functional
[14] = target: Dual specificity tyrosine-phosphorylation-regulated kinase 4 (Homo sapiens, UniProt Q9NR20); format: functional
Sequence of Dual specificity tyrosine-phosphorylation-regulated kinase 4 (Q9NR20 whole entry): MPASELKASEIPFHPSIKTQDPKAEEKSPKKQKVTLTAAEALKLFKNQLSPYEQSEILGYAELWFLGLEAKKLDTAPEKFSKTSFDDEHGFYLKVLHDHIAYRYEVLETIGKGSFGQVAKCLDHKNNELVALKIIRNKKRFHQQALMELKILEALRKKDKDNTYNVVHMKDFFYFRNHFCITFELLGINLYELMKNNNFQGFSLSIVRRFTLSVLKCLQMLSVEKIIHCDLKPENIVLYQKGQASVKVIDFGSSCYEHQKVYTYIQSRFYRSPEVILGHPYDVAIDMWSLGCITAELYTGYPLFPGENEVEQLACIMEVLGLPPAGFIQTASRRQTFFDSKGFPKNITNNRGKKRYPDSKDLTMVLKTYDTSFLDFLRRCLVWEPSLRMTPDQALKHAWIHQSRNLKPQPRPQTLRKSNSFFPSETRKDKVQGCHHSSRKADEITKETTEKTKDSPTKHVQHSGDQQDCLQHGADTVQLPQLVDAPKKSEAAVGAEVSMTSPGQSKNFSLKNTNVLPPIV

Focal adhesion kinase 1 = Focal adhesion kinase 1 (Homo sapiens, UniProt Q05397); format: functional;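 note: measured as one member of a kinome panel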
[15] = target: RAC-alpha serine/threonine-protein kinase (Homo sapiens, UniProt P31749); format: functional;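 note: AKT1 affinity measured as one member of a kinome-wide kinase profiling panel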
[16] = target: Tyrosine-protein kinase Fer (Homo sapiens, UniProt P16591); format: functional;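 note: FER tested as one member of a kinome panel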
Sequence of Tyrosine-protein kinase Fer (P16591 whole entry): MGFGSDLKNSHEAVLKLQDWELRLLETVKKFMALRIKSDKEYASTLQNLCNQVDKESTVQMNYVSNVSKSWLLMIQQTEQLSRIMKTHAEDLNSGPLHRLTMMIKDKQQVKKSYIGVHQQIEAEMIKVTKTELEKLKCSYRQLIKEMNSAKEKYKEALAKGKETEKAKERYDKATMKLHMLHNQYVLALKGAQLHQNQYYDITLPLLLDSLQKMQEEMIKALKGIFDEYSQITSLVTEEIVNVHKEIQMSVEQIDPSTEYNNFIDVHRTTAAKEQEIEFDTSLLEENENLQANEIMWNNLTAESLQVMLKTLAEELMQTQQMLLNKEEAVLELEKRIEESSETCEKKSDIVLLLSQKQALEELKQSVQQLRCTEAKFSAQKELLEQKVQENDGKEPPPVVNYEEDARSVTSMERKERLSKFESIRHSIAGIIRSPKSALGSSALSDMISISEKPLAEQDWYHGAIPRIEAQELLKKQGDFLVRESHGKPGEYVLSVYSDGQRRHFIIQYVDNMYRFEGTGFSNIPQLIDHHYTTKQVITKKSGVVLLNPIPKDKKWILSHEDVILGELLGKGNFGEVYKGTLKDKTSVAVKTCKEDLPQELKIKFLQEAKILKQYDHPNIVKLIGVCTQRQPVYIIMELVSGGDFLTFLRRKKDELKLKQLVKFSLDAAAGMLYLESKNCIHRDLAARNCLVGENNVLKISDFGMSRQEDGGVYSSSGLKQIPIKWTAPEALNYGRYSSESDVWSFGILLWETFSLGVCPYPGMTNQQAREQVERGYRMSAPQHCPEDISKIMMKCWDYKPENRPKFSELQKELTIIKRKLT

[17] = target: Serine/threonine-protein kinase pim-2 (Homo sapiens, UniProt Q9P1W9); format: functional;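 note: value comes from a broad kinase panel profiling study in which PIM2 was one of the panel members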
Sequence of Serine/threonine-protein kinase pim-2 (Q9P1W9 whole entry): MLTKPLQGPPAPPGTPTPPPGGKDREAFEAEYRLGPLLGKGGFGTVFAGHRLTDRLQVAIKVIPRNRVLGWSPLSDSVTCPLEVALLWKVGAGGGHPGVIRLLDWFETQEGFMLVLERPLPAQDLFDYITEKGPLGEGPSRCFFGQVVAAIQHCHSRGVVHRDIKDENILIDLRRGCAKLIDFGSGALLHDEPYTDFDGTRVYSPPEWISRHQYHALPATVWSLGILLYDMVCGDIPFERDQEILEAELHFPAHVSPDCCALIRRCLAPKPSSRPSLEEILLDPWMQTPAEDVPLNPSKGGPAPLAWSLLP

[18] = target: 3-phosphoinositide-dependent protein kinase 1 (Homo sapiens, UniProt O15530); format: functional;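 note: value comes from the Navigating the Kinome panel, PDPK1 member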
Sequence of 3-phosphoinositide-dependent protein kinase 1 (O15530 whole entry): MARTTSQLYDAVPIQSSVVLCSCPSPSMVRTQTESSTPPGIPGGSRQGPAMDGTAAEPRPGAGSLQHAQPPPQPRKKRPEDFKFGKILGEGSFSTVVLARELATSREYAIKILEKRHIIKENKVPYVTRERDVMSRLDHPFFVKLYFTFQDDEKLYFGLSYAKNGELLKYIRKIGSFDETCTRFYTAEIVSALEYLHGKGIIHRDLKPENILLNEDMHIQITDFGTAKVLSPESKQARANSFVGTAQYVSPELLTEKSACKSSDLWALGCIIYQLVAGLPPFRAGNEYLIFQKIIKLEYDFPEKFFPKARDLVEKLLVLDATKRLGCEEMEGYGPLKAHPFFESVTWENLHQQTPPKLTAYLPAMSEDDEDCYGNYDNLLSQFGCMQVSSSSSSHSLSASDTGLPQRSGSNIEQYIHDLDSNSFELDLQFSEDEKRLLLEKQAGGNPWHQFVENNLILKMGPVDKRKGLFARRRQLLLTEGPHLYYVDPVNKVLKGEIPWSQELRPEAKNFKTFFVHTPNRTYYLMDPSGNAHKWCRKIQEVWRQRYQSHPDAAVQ

[19] = target: STE20-like serine/threonine-protein kinase (Homo sapiens, UniProt Q9H2G2); format: functional
Sequence of STE20-like serine/threonine-protein kinase (Q9H2G2 whole entry): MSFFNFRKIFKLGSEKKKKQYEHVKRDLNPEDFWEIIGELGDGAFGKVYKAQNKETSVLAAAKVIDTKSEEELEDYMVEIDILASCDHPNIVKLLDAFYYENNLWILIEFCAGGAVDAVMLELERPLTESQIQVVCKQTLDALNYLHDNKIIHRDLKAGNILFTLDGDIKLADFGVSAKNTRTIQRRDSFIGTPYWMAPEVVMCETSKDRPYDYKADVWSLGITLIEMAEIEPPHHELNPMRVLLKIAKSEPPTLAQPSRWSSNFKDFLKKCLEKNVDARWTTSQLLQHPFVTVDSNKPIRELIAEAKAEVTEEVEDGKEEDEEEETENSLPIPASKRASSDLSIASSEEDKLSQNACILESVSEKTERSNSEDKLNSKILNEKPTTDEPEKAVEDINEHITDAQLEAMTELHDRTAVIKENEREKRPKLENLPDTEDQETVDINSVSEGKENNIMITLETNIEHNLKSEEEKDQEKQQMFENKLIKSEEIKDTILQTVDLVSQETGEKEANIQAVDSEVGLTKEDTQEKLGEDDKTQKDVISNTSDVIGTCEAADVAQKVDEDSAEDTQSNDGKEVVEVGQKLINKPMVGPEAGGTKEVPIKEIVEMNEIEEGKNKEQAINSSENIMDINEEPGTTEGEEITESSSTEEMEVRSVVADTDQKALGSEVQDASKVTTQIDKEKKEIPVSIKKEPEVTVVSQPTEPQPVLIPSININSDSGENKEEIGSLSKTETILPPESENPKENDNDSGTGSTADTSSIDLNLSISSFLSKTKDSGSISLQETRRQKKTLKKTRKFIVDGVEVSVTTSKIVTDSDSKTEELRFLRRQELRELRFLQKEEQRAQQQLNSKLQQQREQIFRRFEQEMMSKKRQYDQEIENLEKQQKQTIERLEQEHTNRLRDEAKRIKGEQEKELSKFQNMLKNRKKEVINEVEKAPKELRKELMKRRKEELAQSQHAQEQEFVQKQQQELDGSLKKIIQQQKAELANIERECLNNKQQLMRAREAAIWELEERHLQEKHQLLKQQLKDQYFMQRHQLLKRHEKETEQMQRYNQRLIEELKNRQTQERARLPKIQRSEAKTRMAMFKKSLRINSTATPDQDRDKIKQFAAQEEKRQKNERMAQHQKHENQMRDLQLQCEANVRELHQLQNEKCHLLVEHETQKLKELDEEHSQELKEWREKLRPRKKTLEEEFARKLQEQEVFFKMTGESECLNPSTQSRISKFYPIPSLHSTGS

[20] = target: cAMP-dependent protein kinase catalytic subunit alpha (Homo sapiens, UniProt P17612); format: functional
[21] = target: Serine/threonine-protein kinase BRSK1 (Homo sapiens, UniProt Q8TDC3); format: functional;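 note: measured within a kinome-wide kinase panel, with the target listed as KIAA1811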

CC(=O)N(C1=C(Cl)C(=O)c2ccccc2C1=O)C1CCCCC1
EC50 [1]: 8180 nM (active)
EC50 (Streptokinase A): > 150000 nM (not active)
IC50 (CHO): 802 nM (active)

Oc1ccc(-c2cn3c(n2)SCC3)cc1O
IC50 (Bcl-2-like protein 10): 79100 nM (inactive)
IC50 (Aspartyl aminopeptidase): 1550 nM (active)
EC50 [1]: 1770 nM (active)
IC50 [2]: 41000 nM (inactive)

O=C1Nc2ccc3ncsc3c2C1=CNc1ccc(S(=O)(=O)Nc2ccccn2)cc1
Ki [3]: 158 nM (active)
Ki [4]: 3.98 nM (active)
Ki (SRSF protein kinase 1): 1000 nM (active)
Ki [5]: 126 nM (active)
Ki [6]: 1580 nM (active)
Ki (Aurora kinase A): 15.8 nM (active)
Ki [7]: 398 nM (active)
Ki [8]: 316 nM (active)
Ki [9]: 251 nM (active)
Ki [10]: 3.98 nM (active)
Ki [11]: 25.1 nM (active)
Ki (Ephrin type-A receptor 2): 794 nM (active)
Ki [12]: > 2000 nM (inactive)
Ki [13]: 158 nM (active)
Ki [14]: 3160 nM (active)
Ki (Focal adhesion kinase 1): > 1580 nM (inactive)
Ki [15]: > 7940 nM (inactive)
Ki [16]: 1260 nM (active)
Ki [17]: 1000 nM (active)
Ki [18]: 15.8 nM (active)
Ki [19]: 126 nM (active)
Ki [20]: 3980 nM (active)
Ki [21]: 12.6 nM (active)
